Source: patent US11896678B2, “Compositions and methods for treatment of peroxisome proliferator-activated receptor gamma (PPARG) activated cancer” (THE BROAD INSTITUTE, INC., priority 2017, dated 2024)

Assays:
[1] = cited from earlier work
[2] = cited from earlier work; remark: listed apart in the source
[3] = alone; cited from earlier work
[4] = test system: urinary bladder carcinogenesis; conditions: rats; cited from earlier work
bladder cancer = conditions: rodents; cited from earlier work
5637 cells = assay: Proliferation assay in PPARG-amplified 5637 cells; format: cell-based; conditions: Homo sapiens; data not shown
Description: To determine if treatment of PPARG-activated bladder cancer cell lines with PPARG modulators impacted viability, a variety of compounds were tested in proliferation assays.

UM-UC-9 cells = assay: Direct cell counting dose-response proliferation assay; format: cell-based, human
Description: To determine whether PPARG modulators affect the proliferation and/or viability of PPARG-activated bladder cancer cell lines, a direct cell counting-based assay was performed. This assay likely avoids potential artifacts associated with the use of an ATP content-based assay, given that PPAR modulators are known to regulate cellular metabolic activity. […] These IC50 values align well with the calculated IC50s from both the cell-based reporter gene assay (FIG. 8A) and the biochemical corepressor assay (FIG. 8D).
(§1) Proliferation Assays: To enable cell-counting experiments, cell lines were transduced with a lentiviral vector encoding nuclear-targeted GFP, TagGFP2-H2B (Evrogen), and stable pools generated following selection for puromycin resistance. Cell lines were maintained for at least 7 days following selection prior to expansion and seeding into 96- or 384-well plates for further analysis. For kinetic proliferation assays, 96-well plates (n 1% 4 per condition) were imaged and counted every two hours using IncuCyte Zoom (Essen BioScience). Media and compounds were replaced approximately every 3-4 days. For endpoint assays to measure dose-response, cells were plated in 384-well plates, dosed with compound, and upon reaching approximately 70% to 90% confluence in control wells, cells were either counted using fluorescence imaging (Incu-Cyte Zoom) or incubated with CyQuant (Thermo Fisher) at the indicated time and plates were read with a fluorescent plate reader.

PPARA = biological target: T1, PPARA (Homo sapiens, UniProt Q07869); conditions: read-out: apparent Ki; cited from earlier work
T1 sequence (Q07869 1-468): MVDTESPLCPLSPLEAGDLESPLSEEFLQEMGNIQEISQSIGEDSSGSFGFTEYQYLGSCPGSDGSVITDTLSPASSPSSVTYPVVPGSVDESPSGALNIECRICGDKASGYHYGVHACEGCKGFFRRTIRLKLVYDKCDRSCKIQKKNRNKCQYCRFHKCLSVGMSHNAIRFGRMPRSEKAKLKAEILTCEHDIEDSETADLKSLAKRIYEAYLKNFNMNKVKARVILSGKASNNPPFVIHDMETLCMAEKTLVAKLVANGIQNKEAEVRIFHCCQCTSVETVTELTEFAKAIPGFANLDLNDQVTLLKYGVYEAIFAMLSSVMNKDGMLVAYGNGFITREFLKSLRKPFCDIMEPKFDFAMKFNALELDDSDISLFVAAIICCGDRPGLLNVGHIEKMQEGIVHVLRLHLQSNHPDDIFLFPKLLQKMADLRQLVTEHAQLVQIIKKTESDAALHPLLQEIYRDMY

DLBCL cells = conditions: 1-15 uM; cited from earlier work
[5] = test system: PPARG-activated bladder cancer cell lines; assay: Proliferation assays in PPARG-activated bladder cancer cell lines; format: cell-based, human; conditions: 100 nM-500 nM
Description: A panel of bladder cancer cell lines with PPARG modulators in colony formation assays was then tested (FIG. 10), kinetic proliferation assays (IncuCyte Zoom; Essen Bioscience) using cell lines treated with a single concentration of compound (100 nM-500 nM), and end-point dose-response assays (CellTiter Glo or CyQuant).
This assay was expanded to include an additional 8 representative bladder cancer cell lines, including cell lines with PPARG amplification, RXRA p.S427F mutation, activated gene signature, and control cell lines with low level expression of PPARG and target genes. […] Representative data for the UM-UC-9 cell line are shown in FIG. 6B, and is tabulated for the tested bladder cancer cell lines in Table 1. […] This significant (P<0.01) preferential sensitivity to PPARG inverse-agonists, but not antagonists, is maintained across all of the PPARG-activated cell lines in the panel, including the RXRA p.S427F cell line, HT-1197 (41), the PPARG-amplified cell lines, 5637 and UM-UC-9, and the PPARG activation gene signature cell lines Cal29, UM-UC-1, and RT112/84 (FIG. 12). […] Similar results were obtained with these cell lines in parallel studies using clonogenic assays to quantify colony-forming ability (FIG. 10).
as §1

[6] = test system: PPARG-activated pancreatic and colorectal cancer cell lines; assay: Kinetic proliferation assay in pancreatic and colorectal cancer cell lines; format: cell-based; conditions: 500 nM
Text: To enable cell-counting, cell lines were transduced with a lentiviral vector encoding nuclear-targeted GFP (TagGFP2-H2B), and stable pools generated following selection for puromycin-resistance. Cell lines were maintained for at least 7 days following selection prior to expansion and seeding into 96-well plates for further analysis. For kinetic proliferation assays, 96-well plates were imaged in phase-contrast and green fluorescence mode every two hours using IncuCyte Zoom (Essen BioScience, Ann Arbor MI). Using IncuCyte software, the number of fluorescent nuclei were counted to monitor quantitative changes in cell number over time. Media and compounds were replaced approximately every 3-4 days.
DMSO treatment was also included as a vehicle control.

FABP4 expression = assay: Immunoblot of FABP4 in bladder cancer cell lines; format: cell-based, human; conditions: panel of bladder cancer cell lines
Description: Western Blot Analysis: Western blots were performed using standard protocols with semi-dry transfer Trans-Blot® SD (Bio-Rad Hercules, CA), Li-Cor Odyssey Blocking buffer, and imaging with LiCor Odyssey Imaging System (LI-COR Lincoln, NE). Briefly, cells were grown in 6-well plates and harvested using Complete Lysis-M with protease and phosphatase inhibitors (Roche Applied Science). Western blot analyses were performed using standard protocols with semi-dry transfer Trans-Blot SD (Bio-Rad), LI-COR Odyssey Blocking buffer, and imaging with LI-COR Odyssey Imaging System (LI-COR). The anti-PPARG C26H12, anti-PPARG 81B8, anti-FABP4 D25B3, and anti-CEACAM5 CB30 antibodies were obtained from Cell Signaling Technology. The anti-ACSL5 ab57210 and anti-HMCGS2 EPR8642 antibodies were obtained from Abcam. The anti-VCL (vinculin) V9264 antibody was obtained from Sigma-Aldrich. All primary antibodies were tested at 1:1,000 dilutions, with the exception of anti-VCL, which was tested at a 1:5,000 dilution. Secondary goat anti-mouse 926-68020, and goat-anti-rabbit 926-32211 antibodies were obtained from LI-COR Biosciences and used at 1:15,000 dilutions.

SMILES: N.N.O=C([O-])C1(C(=O)[O-])CCC1.[Pt+2] [Carboplatin, platinum, diammine [1,1-cyclobutane-dicarboxylato(2-)-0,0′]-(SP-4-2)]
- solubility in water [1]: approximately 14 mg/mL
- pH of a 1% solution [2]: 5-7
- oral bioavailability [3]: approximately 4%

SMILES: CN(CCOc1ccc(CC2SC(=O)NC2=O)cc1)c1ccccn1 (stereo not shown) [rosiglitazone]
- urinary bladder carcinogenesis compared with OH-BBN alone [4]: potentiate urinary bladder carcinogenesis
- carcinogenic effect, bladder cancer (bladder cancer): not

SMILES: O=C(Nc1ccncc1)c1cc([N+](=O)[O-])ccc1Cl [T0070907, 2-Chloro-5-nitro-N-4-pyridinyl-benzamide]
- IC50 (5637 cells): 20 to 30 nM
- effect on cell proliferation compared with DMSO control (UM-UC-9 cells): significantly reduced proliferation
- IC50 (UM-UC-9 cells; Homo sapiens, UM-UC-9, read-out: calculated IC50, proliferation): 39 nM
- Ki (PPARA): ~850 nM
- growth of DLBCL cells (DLBCL cells): attenuate growth
- sensitivity of cell lines [5]: preferentially sensitive
- sensitivity of cell lines [6]: preferentially sensitive
- expression of FABP4 (FABP4 expression): able to reduce expression of FABP4
